Assay type in all cases: functional
Test [1] has as its system Staphylococcus aureus. The test can be described thus: Antimicrobial activity against wild type Staphylococcus aureus by broth dilution method.
For test [2], the system named is Staphylococcus aureus. Description: Antimicrobial activity against methicillin-resistant Staphylococcus aureus by broth dilution method. A general note: Dilution methods test growth across graded concentrations, often in twofold steps.
For a further test, the system named is Enterococcus faecium. The test can be described thus: Antimicrobial activity against vancomycin-resistant Enterococcus faecium by broth dilution method.
The subject of test [3] is Escherichia coli. The test can be described thus: Antimicrobial activity against membrane permeability mutant Escherichia coli imp by broth dilution method.
The subject of test [4] is Escherichia coli. The test can be described thus: Antimicrobial activity against wild type Escherichia coli by broth dilution method.
A further test concerns Candida albicans. Description: Antimicrobial activity against Candida albicans by broth dilution method.

≈ marks a conversion by molar mass, not a printed value. Non-standard residues stand in square brackets, D forms with d. Residues, ends and D or L forms follow the SMILES beside them. *: point of attachment. X1 = OCCNC[C@H](Cc1ccccc1)N*; Aib = CC(C)(N)C(=O)O

On to `CC(=O)NC(C)(C)C(=O)N1CCC[C@H]1C(=O)NC(C)(C)C(=O)N[C@@H](C)C(=O)NC(C)(C)C(=O)N[C@@H](C)C(=O)N[C@@H](CCC(N)=O)C(=O)NC(C)(C)C(=O)N[C@H](C(=O)NC(C)(C)C(=O)NCC(=O)N[C@@H](CC(C)C)C(=O)NC(C)(C)C(=O)N1CCC[C@H]1C(=O)N[C@H](C(=O)NC(C)(C)C(=O)NC(C)(C)C(=O)N[C@@H](CCC(=O)O)C(=O)N[C@@H](CCC(N)=O)C(=O)N[C@H](CNCCO)Cc1ccccc1)C(C)C)C(C)C` [septocylindrin A] (Ac-[Aib]P[Aib]A[Aib]AQ[Aib]V[Aib]GL[Aib]PV[Aib][Aib]EQ-X1), for which the MIC (in general, the smallest concentration in the dilution series that meets the test's criterion for growth inhibition) is 32 µg/mL (≈ 15.9 µM) in the test on Staphylococcus aureus [1]; 128 µg/mL (≈ 63.8 µM) with Staphylococcus aureus [2]; 16 µg/mL (≈ 7.97 µM) in the test on Enterococcus faecium; 32 µg/mL (≈ 15.9 µM) in the test on Escherichia coli [3]; over 128 µg/mL against Escherichia coli [4]; 32 µg/mL (≈ 15.9 µM) with Candida albicans.

For the compound `CC(=O)NC(C)(C)C(=O)N1CCC[C@H]1C(=O)NC(C)(C)C(=O)N[C@@H](C)C(=O)NC(C)(C)C(=O)N[C@@H](C)C(=O)N[C@@H](CCC(N)=O)C(=O)NC(C)(C)C(=O)N[C@H](C(=O)NC(C)(C)C(=O)NCC(=O)N[C@@H](CC(C)C)C(=O)NC(C)(C)C(=O)N1CCC[C@H]1C(=O)N[C@H](C(=O)NC(C)(C)C(=O)NC(C)(C)C(=O)N[C@@H](CCC(N)=O)C(=O)N[C@@H](CCC(N)=O)C(=O)N[C@H](CNCCO)Cc1ccccc1)C(C)C)C(C)C` [septocylindrin B] (Ac-[Aib]P[Aib]A[Aib]AQ[Aib]V[Aib]GL[Aib]PV[Aib][Aib]QQ-X1), the MIC is 8 µg/mL (≈ 3.99 µM) with Staphylococcus aureus [1]; 16 µg/mL (≈ 7.97 µM) in the test on Staphylococcus aureus [2]; 8 µg/mL (≈ 3.99 µM) in the test with Enterococcus faecium; 8 µg/mL (≈ 3.99 µM) in the test with Escherichia coli [3]; over 128 µg/mL against Escherichia coli [4]; 16 µg/mL (≈ 7.97 µM) in the test on Candida albicans.

Source of the values: ChEMBL document CHEMBL1142861, “Septocylindrins A and B: peptaibols produced by the terrestrial fungus Septocylindrium sp. LL-Z1518” (2007).
